From patent publication US20020169205A1, “Implantation rates after in vitro fertilization, and treatment of infertility and early pregnancy loss with a nitric oxide donor or substrate alone or in combination with progesterone, and a method for contraception with nitric oxide inhibitors in combination with antiprogestins or other agents” (priority 1998, published 2002)

Assays:
[1] = test system: uterine strips from rats at mid to near term gestation; settings: cited from earlier work
[2] = test system: uterine blood flow; settings: low dose aspirin, patients with impeded blood flow; cited from earlier work
[3] = test system: implantation in rats; assay: Effects of L-NAME on implantation in pregnant rats (FIG. 1 and FIG. 2); assay type: in vivo
Experimental: The animals were treated with 25 and 50 mg/animal/day L-NAME administered via continuous s.c. infusion from day 1 post coitum (p.c.) until day 7 p.c The autopsy was performed on day 12 p.c.
The animals were treated with 25 and 50 mg/animal/day L-NAME administered via continuous s.c. infusion on day 5-7 (p.c.). The autopsy was performed on either day 9 p.c. or day 12 p.c.
In the experiments whose results are shown in FIG. 1, pregnant rats (n=6/group) were treated with 25 and 50 mg/animal/day L-NAME from day 1 p.c. until day 7 p.c., i.e. during the period of pre-implantation and early implantation (in rats implantation takes place on day 5 p.c. ). The control animals were treated with the vehicle. During autopsy (days 9 and 12 p.c.) the implantation sites were assessed macroscopically, their diameter was measured, and the weights of isolated implantation sites (embryonic and placental tissues) were recorded. FIG. 2 presents results from a second study In pregnant rats in which L-NAME (25 and 50 mg/anilal/day) treatment was performed on days 5-7 p.c., i.e. shortly after nidation had taken place. The autopsy was performed on day 12 p.c. Implantation showing haemorrhagic changes were defined as pathological implantation sites.

[4] = test system: implantation; assay: Other studies: L-NAME effects on implantation combined with low-dose onapristone; assay type: in vivo; settings: onapristone low-dose 0.1-0.3 mg/animal/day together with L-NAME
[5] = 25 and 50 mg/animal/day s.c. infusion, autopsy day 9 or 12 p.c.

SMILES: N=C(N)NCCC[C@H](N)C(=O)O [L-arginine]
- relaxation of spontaneous activity of uterine strips [1]: rapid and substantial relaxation

SMILES: CC(=O)Oc1ccccc1C(=O)O [aspirin]
- effect on uterine blood flow [2]: only marginal

SMILES: COC(=O)[C@@H](N)CCCNC(=N)N[N+](=O)[O-] [L-NAME, NG-nitro-L-arginine methyl ester]
- effect on implantation ([3]; 25 and 50 mg/animal/day continuous s.c. infusion, day 1-7 p.c. or days 5-7 p.c.): profound effect on implantation
- size of the implantation sites [3, 5]: dose-dependent inhibition
- weight of the implantation sites [3, 5]: dose-dependent inhibition
- pathological changes in the implantation sites ([3]; 25 and 50 mg/animal/day s.c. infusion, haemorrhagic changes defined as pathological): induced pathological changes in the implantation sites (mainly haemorrhages)

SMILES: CN(C)c1ccc([C@H]2C[C@]3(C)[C@@H](CC[C@]3(O)CCCO)[C@@H]3CCC4=CC(=O)CCC4=C32)cc1 [onapristone]
- L-NAME-induced effects on implantation with added antiprogestin [4]: enhanced
